Several values for one entry are separate records, joined by “and”; a condition that tells them apart may be missing. Equal values may be shown once. Non-standard residues stand in square brackets, D forms with d. Residues, ends and D or L forms follow the SMILES beside them. Nva = CCC[C@H](N)C(=O)O
Assays:
HFD induced NASH mice = experiment: HFD mice: oral glucose tolerance test (OGTT); format: in vivo, mouse; settings: JT003 500 μg kg−1, in words
Description: Fasting blood glucose was measured using OneTouch UltraVue Blood Glucose Meter and test strips (Johnson&Johnson, USA) from tail nicks. After HFD fed for 14 weeks and JT003 treated for 2 weeks, oral glucose tolerance tests were performed on 8 h fasted mice. 0.5 g ml^−1 D-glucose solution (Sigma-Aldrich, USA) were oral injected to mice (2 g kg^−1 of bodyweight), blood glucose level was recorded at baseline, 15, 30, 60, 120 min

[1] = tested on: CCl4 induced liver fibrosis mice; experiment: CCl4 mice: serum ALT, AST and liver HYP; format: in vivo, mouse; design: AST, Supplementary Figure 14 / HYP, Supplementary Figure 14: unit not given here; settings: for HYP, Supplementary Figure 14 / AST, Supplementary Figure 14: CCl4 + JT003 mice; for HYP, Supplementary Figure 14: liver; for AST, Supplementary Figure 14: serum
Description: Male mice liver fibrosis was induced by intraperitoneal injection of 20% CCl4 (Sigma, USA) diluted in corn oil (Aladdin, China) every 3 days for 6 weeks (n = 6; 5 ml kg^−1 body weight). Mice injected with equivalent volume of corn oil serves as control group (n = 6). Liver fibrosis mice treated with JT003 for 3 weeks were used to evaluated the pharmacological effects (n = 6; 500 μg kg^−1; daily intraperitoneal injection).
The levels of ALT, AST, TC and TG in serum were determined using certain commercial assay kits (Nanjing Jiancheng Bioengineering Institute, China). Fasting adiponectin and insulin were quantified in plasma samples using corresponding commercially available Elisa kits (Cloud-Clone Crop, USA).
The levels of TG and HYP in liver tissue were detected with certain commercial assay kit (Nanjing Jiancheng Bioengineering Institute, China). Formalin-fixed liver tissues were embedded in paraffin, sectioned into 5 μm slices. After deparaffinization and rehydration of the section slices, they were stained with Haematoxylin and Eosin or Periodic Acid-Schiff. For the detection of liver collagen content, Sirius Red staining for collagen was performed. OCT-embedded frozen liver tissues were sectioned into 12 μm slices, and Oil Red O staining was performed. The cryostat-cut slices were stained with freshly prepared Oil Red O working solution for 7 min Two independent experimenters who were blinded to the treatment evaluated the staining slides and analyzed the score for steatosis, glucogen accumulation and collagen proliferation area.

[2] = tested on: gene expression in LX2 cells; experiment: Quantitative RT-PCR in LX2 cells; format: cell-based, human; design: key to Vimentin mRNA / CTGF mRNA / OPN mRNA / IL-6 mRNA / TNF mRNA / IL-1 mRNA / TIMP2 mRNA / MMP2 mRNA / MMP9 mRNA / MMP12 mRNA / MMP13 mRNA: relative mRNA expression normalized to β-actin
Description: Hepatoma carcinoma cell line HepG2 and human hepatic activated stellate cell line LX2 used in this study were purchased from Type Culture Collection of the Chinese Academy of Sciences (Shanghai, China). Cells were cultured in Dulbecco’s modified Eagle’s medium (DMEM) with 10% fetal bovine serum (FBS), supplemented with 1% penicillin–streptomycin (ThermoFisher Scientific, USA) at 37 °C in a humidified atmosphere of 5% CO2. In PA (Sigma, USA) induced lipid accumulation cell model, HepG2 cells were seeded into a 6-well plate at 5E5 cells per well. 0.25 mM PA and/or 200 μM candidate peptides were co-incubated with cells for 24 h. Then Oil Red O staining was performed to evaluate the accumulation of lipid droplets. BSA (Sigma, USA) was used in this experiment as the negative control. For LX2 cells, 2E5 cells were seeded, then the adherent cells were exposed to 200 μM candidate peptides for another 48 h. Next, the cell protein was obtained and western blotting was performed. Candidate peptides were diluted in DMEM in a stock concentration of 1 M.
Liver total RNA was extracted by using Trizol reagent following the manufacture’s instruction (TransGen Biotech, China). The concentration of RNA was measured by Nanodrop 2000 (ThermoFisher Scientific, USA). cDNA was transcribed from 10ug total RNA with First Strand cDNA synthesis Super Mix (TransGen Biotech, China). The cDNA was diluted 1/50 and 1.0 uL were used as a template for qPCR. qPCR was performed with SYBR Green qPCR Super Mix (TransGen Biotech, China) in the Light Cycler 480 Real-Time PCR System (Roche, Swiss). Reference gene β-actin was used for data normalization. mRNA expression was analyzed with specific primers listed in Supplementary Table 2.

[3] = Figure 6a left, LX2 cells, JT003 vs Vehicle, single replicates, n = 4
[4] = Figure 6a right, LX2 cells, JT003 vs Vehicle, single replicates, n = 4

CCC[C@H](NC(=O)[C@@H]1CCCN1)C(=O)N[C@@H](CC(C)C)C(=O)N[C@@H](Cc1ccc(O)cc1)C(=O)N[C@@H](Cc1ccc(O)cc1)C(=O)N[C@@H](Cc1ccccc1)C(=O)N[C@@H](C)C(N)=O [JT003] (H-P[Nva]LYYFA-NH2)
HFD-induced insulin resistance, oral glucose tolerance test (HFD induced NASH mice): obviously ameliorated | HYP, Supplementary Figure 14 ([1]; replicate 1): 4.654 | HYP, Supplementary Figure 14 ([1]; replicate 2): 11.7831 | HYP, Supplementary Figure 14 ([1]; replicate 3): 12.1297 | AST, Supplementary Figure 14 ([1]; replicate 1): 54.5376 | AST, Supplementary Figure 14 ([1]; replicate 2): 45.2431 | AST, Supplementary Figure 14 ([1]; replicate 3): 22.8392 | AST, Supplementary Figure 14 ([1]; replicate 4): 27.6777 | AST, Supplementary Figure 14 ([1]; replicate 5): 24.2523 | AST, Supplementary Figure 14 ([1]; replicate 6): 28.6282 | ALT, AST and HYP activities ([1]; CCl4 mice, JT003 500 μg kg−1 i.p. daily 3 weeks, in words): notably diminished | MMP2 mRNA [2, 3]: 1.293 and 0.7704 and 1.1819 and 1.0719 | MMP9 mRNA [2, 3]: 2.131 and 1.538 and 2.384 and 1.884 | MMP12 mRNA [2, 3]: 1.826 and 1.7 and 2.413 and 1.763 | MMP13 mRNA [2, 3]: 2.514 and 2.381 and 3.247 and 2.347 | TIMP2 mRNA [2, 3]: 0.8037 and 0.8728 and 0.6883 and 0.7883 | CTGF mRNA [2, 4]: 0.7417 and 0.5541 and 0.6479 and 0.621 | IL-1 mRNA [2, 4]: 0.9119 and 0.6477 and 0.5242 and 0.686 | IL-6 mRNA [2, 4]: 0.6335 and 0.6954 and 0.6645 and 0.66 | OPN mRNA [2, 4]: 0.8619 and 0.7815 and 0.9867 and 0.8941 | TNF mRNA [2, 4]: 0.6949 and 0.8263 and 0.7906 and 0.7334 | Vimentin mRNA [2, 4]: 0.6199 and 0.6972 and 0.6586 and 0.5779 | IL-1a mRNA, relative expression, Supplementary Figure 15a ([2]; JT003 vs Vehicle, replicate 1): 0.9119 | IL-6 mRNA, relative expression, Supplementary Figure 15a ([2]; JT003 vs Vehicle, replicate 1): 1.034 | TNFa mRNA, relative expression, Supplementary Figure 15a ([2]; JT003 vs Vehicle, replicate 1): 0.6949 | iNOS mRNA, relative expression, Supplementary Figure 15a ([2]; JT003 vs Vehicle, replicate 1): 1.242 | IL-1a mRNA, relative expression, Supplementary Figure 15a ([2]; JT003 vs Vehicle, replicate 2): 0.5774 | IL-6 mRNA, relative expression, Supplementary Figure 15a ([2]; JT003 vs Vehicle, replicate 2): 0.932 | TNFa mRNA, relative expression, Supplementary Figure 15a ([2]; JT003 vs Vehicle, replicate 2): 0.8263 | iNOS mRNA, relative expression, Supplementary Figure 15a ([2]; JT003 vs Vehicle, replicate 2): 1.188 | IL-1a mRNA, relative expression, Supplementary Figure 15a ([2]; JT003 vs Vehicle, replicate 3): 0.5946 | IL-6 mRNA, relative expression, Supplementary Figure 15a ([2]; JT003 vs Vehicle, replicate 3): 0.9828 | TNFa mRNA, relative expression, Supplementary Figure 15a ([2]; JT003 vs Vehicle, replicate 3): 0.7606 | iNOS mRNA, relative expression, Supplementary Figure 15a ([2]; JT003 vs Vehicle, replicate 3): 0.8438 | IL-1a mRNA, relative expression, Supplementary Figure 15a ([2]; JT003 vs Vehicle, replicate 4): 0.706 | IL-6 mRNA, relative expression, Supplementary Figure 15a ([2]; JT003 vs Vehicle, replicate 4): 0.9774 | TNFa mRNA, relative expression, Supplementary Figure 15a ([2]; JT003 vs Vehicle, replicate 4): 0.7834 | iNOS mRNA, relative expression, Supplementary Figure 15a ([2]; JT003 vs Vehicle, replicate 4): 0.9516 | HSC activation factors (Vimentin, CTGF, OPN, IL-6, TNFα and IL-1α) ([2]; LX2, 200 μM JT003, in words): significantly suppressed | expression of ER-mitochondrial function-related markers ([2]; LX2, 200 μM JT003, in words): improved | expression of genes involved in ECM accumulation (TIMP1) and degradation (MMP9, MMP12, MMP13) ([2]; LX2, 200 μM JT003, in words): notably altered | inflammation related genes (TNFα, IL-1α, IL-6 and iNOS) ([2]; LX2, 200 μM JT003, in words): suppressed

From PMC7669869, “AdipoR1/AdipoR2 dual agonist recovers nonalcoholic steatohepatitis and related fibrosis via endoplasmic reticulum-mitochondria axis” (Nature Communications, 2020)
